Here are results for 56 compounds from patent US9938262B2, “Benzamides” (Merck Patent GmbH, priority 2011, dated 2018).

The target of the first experiment is T1, FSHR (Homo sapiens, UniProt P23945).
T1 construct: expressed in transfected cells; host or cells: CHO (Cho-FSHR-LUC-1-1-43)
T1 sequence (P23945 18-695): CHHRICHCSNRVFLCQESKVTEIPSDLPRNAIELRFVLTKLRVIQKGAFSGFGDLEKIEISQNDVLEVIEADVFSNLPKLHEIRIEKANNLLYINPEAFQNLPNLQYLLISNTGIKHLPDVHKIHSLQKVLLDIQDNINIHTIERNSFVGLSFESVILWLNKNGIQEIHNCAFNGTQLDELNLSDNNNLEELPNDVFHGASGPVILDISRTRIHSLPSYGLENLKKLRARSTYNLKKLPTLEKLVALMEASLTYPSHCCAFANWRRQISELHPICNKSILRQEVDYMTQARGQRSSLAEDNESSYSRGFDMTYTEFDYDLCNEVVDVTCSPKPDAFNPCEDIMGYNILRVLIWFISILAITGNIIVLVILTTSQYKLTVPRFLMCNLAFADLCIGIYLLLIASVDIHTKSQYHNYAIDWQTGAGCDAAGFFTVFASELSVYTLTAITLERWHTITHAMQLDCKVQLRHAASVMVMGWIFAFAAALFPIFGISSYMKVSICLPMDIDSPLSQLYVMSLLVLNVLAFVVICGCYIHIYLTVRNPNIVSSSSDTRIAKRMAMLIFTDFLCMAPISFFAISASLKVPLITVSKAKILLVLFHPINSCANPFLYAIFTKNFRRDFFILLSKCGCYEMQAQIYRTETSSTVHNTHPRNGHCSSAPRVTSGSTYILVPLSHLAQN
T1 sequence (P01215 25-116 partner): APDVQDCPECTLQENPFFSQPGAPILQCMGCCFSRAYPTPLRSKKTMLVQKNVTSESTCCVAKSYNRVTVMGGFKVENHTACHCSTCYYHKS
T1 sequence (P01225 19-129 partner): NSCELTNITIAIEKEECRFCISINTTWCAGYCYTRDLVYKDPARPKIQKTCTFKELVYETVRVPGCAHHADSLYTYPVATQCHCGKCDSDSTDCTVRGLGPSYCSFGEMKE
As to the kind of experiment: EC50 of cyclic AMP production in CHO FSHR cells + EC20 FSH (Assay A). The experiment is classed as cell-based. The settings on record: 1 h; 5 μM; effect relative to maximum response of the FSH standard; Table 1. A digest of the protocol: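 cAMP HTRF ratio (665/620 nm) read after 1 h, 37 °C exposure of CHO-FSHR cells to compound in presence of EC20 FSH ([…]) and IBMX 200 μM. Responses given relative to FSH standard maximum; EC50 derived.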
`Cc1ccccc1N1CCN(c2ccc(C(=O)NCCCN3CCCC3=O)cc2NC(=O)c2cccc3nccnc23)CC1` [Compound 115]: the activation at 5 µM amounted to 39%.
Still for that read-out and setting: then `COc1ccccc1CNC(=O)c1ccc(N2CCN(c3ccccc3C)CC2)c(NC(=O)c2ccco2)c1` [Compound 124, Furan-2-carboxylic acid [5-(2-methoxy-benzylcarbamoyl)-2-(4-o-tolyl-piperazin-1-yl)-phenyl]-amide], with 82%.
With `Cc1cc(C)c(C(=O)Nc2cc(C(=O)NCCCN3CCCC3=O)ccc2N2CCN(c3ccccc3C)CC2)o1` [Compound 51], the activation at 5 µM is 39%.
Consider `Cc1ccccc1N1CCN(c2ccc(C(=O)NCCCn3ccc4ccccc43)cc2NC(=O)c2ccco2)CC1` [Compound 149], for which the activation at 5 µM turned out to be 24%.
Take `Cc1ccccc1N1CCN(c2ccc(C(=O)NCCCN3CCCC3=O)cc2NC(=O)c2ccc3ccn(C)c3c2)CC1` [Compound 114]: the activation at 5 µM turned out to be 40%.
On the same count and under the same terms, with `Cc1ccc(N2CCN(c3ccc(C(=O)NCCCN4CCCC4=O)cc3NC(=O)c3coc(C4CC4)n3)CC2)cc1C` [Compound 252] the figure was 14%.

Staying with this experiment, now noted: 1 h; 5 μM; effect relative to maximum response of the FSH standard; Table 2.
Take `Cc1ccc(C(=O)Nc2cc(C(=O)NCCCN3CCOC3=O)ccc2N2CCN(c3nccn3C)CC2)o1` [Compound 514]: the activation at 5 µM came to 48%.

The same experiment, now with this note: CHO FSHR cells + EC20 FSH; Table 1; read-out: Assay A EC50 of cyclic AMP production.
Take `Cc1ccccc1N1CCN(c2ccc(C(=O)NCCCN3CCCC3=O)cc2NC(=O)c2ccoc2C)CC1` [Compound 68]: the EC50 fell in the range of 1000 to 10000 nM.
For `Cc1ccccc1N1CCN(c2ccc(C(=O)NCCCN3CCCC3=O)cc2NC(=O)c2ccc(C(N)=O)o2)CC1` [Compound 216, Furan-2,5-dicarboxylic acid 2-amide 5-{[5-[3-(2-oxo-pyrrolidin-1-yl)-propylcarbamoyl]-2-(4-o-tolyl-piperazin-1-yl)-phenyl]-amide}], the 50% effective concentration (EC50) is greater than 10000 nM.
On the same count and under the same terms, then `Cc1ccccc1N1CCN(c2ccc(C(=O)NCc3ccc(C(N)=O)cc3)cc2NC(=O)c2ccco2)CC1` [Compound 247], with less than 100 nM; and `Cc1ccc(C(=O)Nc2cc(C(=O)NCCCN3CCCC3=O)ccc2N2CCN(c3ccccc3)CC2)o1` [Compound 167, 5-Methyl-furan-2-carboxylic acid [5-[3-(2-oxo-pyrrolidin-1-yl)-propylcarbamoyl]-2-(4-phenyl-piperazin-1-yl)-phenyl]-amide], with 1000 to 10000 nM.
Still for that read-out and setting: with `Cc1ccccc1N1CCN(c2ccc(C(=O)NCCC3C[C@H]4CC[C@@H]3C4)cc2NC(=O)c2coc(C3CC3)n2)CC1` (some centres unmarked) [Compound 231] the figure was 100 to 1000 nM.
For the compound `Cc1ccc(C(=O)Nc2cc(C(=O)NCCCN3CCCC3=O)ccc2N2CCN(c3ccccc3[N+](=O)[O-])CC2)o1` [Compound 261], the EC50 lay in the range of 1000 to 10000 nM.
On to `Cc1ncc(C(=O)Nc2cc(C(=O)NCCCN3CCCC3=O)ccc2N2CCN(c3ccccc3C)CC2)s1` [Compound 198], for which the EC50 lay within 100 to 1000 nM.
For `Cc1ccc(C(=O)Nc2cc(C(=O)NCCCn3ccnc3)ccc2N2CCN(c3ccccc3C)CC2)o1` [Compound 210, 5-Methyl-furan-2-carboxylic acid [5-(3-imidazol-1-yl-propylcarbamoyl)-2-(4-o-tolyl-piperazin-1-yl)-phenyl]-amide], the half-maximal effective concentration (EC50) was in the range of 1000 to 10000 nM.
Same read-out and setting: with `CC(=O)Nc1ccc(C(=O)Nc2cc(C(=O)NCCCN3CCCC3=O)ccc2N2CCN(c3ccccc3C)CC2)o1` [Compound 164] the figure was 1000 to 10000 nM; with `Cc1ccccc1N1CCN(c2ccc(C(=O)NCCCc3ccccc3)cc2NC(=O)c2ccco2)CC1` [Compound 89], 100 to 1000 nM; with `Cc1ccccc1N1CCN(c2ccc(C(=O)NCCCN3CCCC3=O)cc2NC(=O)c2cccc(O)c2)CC1` [Compound 146], greater than 10000 nM.
Same read-out and setting: then `Cc1ccccc1N1CCN(c2ccc(C(=O)NCCCN3CCCC3=O)cc2NC(=O)c2csnn2)CC1` [Compound 110], with 1000 to 10000 nM.
For `Cc1ccccc1N1CCN(c2ccc(C(=O)NCCCN3CCCC3=O)cc2NC(=O)c2nc3ccccc3s2)CC1` [Compound 202], the EC50 was 1000 to 10000 nM.

Staying with this experiment, now noted: CHO FSHR cells + EC20 FSH; Table 2; read-out: Assay A EC50 of cyclic AMP production.
For `Cc1ccccc1N1CCN(c2ccc(C(=O)NCc3cccc(CN(C)C)c3)cc2NC(=O)c2coc(C3CC3)n2)CC1` [Compound 348], the concentration giving a half-maximal response (EC50) is 100 to 1000 nM.
`Cc1ccccc1N1CCN(c2ccc(C(=O)NCCCN3CCC[C@H]3C(N)=O)cc2NC(=O)c2ccco2)CC1` [Compound 609]: the concentration giving a half-maximal response (EC50) lay within 100 to 1000 nM.
Turning to `Cc1ccccc1N1CCN(c2ccc(C(=O)NCc3cccc(CO)c3)cc2NC(=O)c2coc(C3CC3)n2)CC1` [Compound 574], the concentration giving a half-maximal response (EC50) is 100 to 1000 nM.
As to `Cc1ccccc1N1CCN(c2ccc(C(=O)NCCCC3CCS(=O)(=O)C3)cc2NC(=O)c2ccco2)CC1` (centres unmarked) [Compound 377], the EC50 fell in the range of 100 to 1000 nM.
The same measure, in the same setting: with `Cc1cncc(N2CCN(c3ccc(C(=O)NCCCN4CCCC4=O)cc3NC(=O)c3coc(C4CC4)n3)CC2)n1` [Compound 533] the figure was 1000 to 10000 nM; with `Cc1cc(N2CCN(c3ccc(C(=O)NCCCN4CCCC4=O)cc3NC(=O)c3coc(C4CC4)n3)CC2)ncn1` [Compound 597], greater than 10000 nM.
Turning to `Cc1cnccc1N1CCN(c2ccc(C(=O)NCCCN3CCCC3=O)cc2NC(=O)c2coc(C3CC3)n2)CC1` [Compound 452], the EC50 was 1000 to 10000 nM.
In the case of `Cc1ccc(C(=O)Nc2cc(C(=O)NCCCc3cn[nH]c3)ccc2N2CCN(c3ccccc3C)CC2)o1` [Compound 334], the half-maximal effective concentration (EC50) was 100 to 1000 nM.
Turning to `Cc1ccccc1N1CCN(c2ccc(C(=O)NCCCC3CCOC3)cc2NC(=O)c2coc(C3CC3)n2)CC1` (centres unmarked) [Compound 282], the concentration giving a half-maximal response (EC50) was in the range of 100 to 1000 nM.
The same measure, in the same setting: with `Cc1ccccc1N1CCN(c2ccc(C(=O)NCCCN3CCCCC3=O)cc2NC(=O)c2ccco2)CC1` [Compound 470] the figure was 100 to 1000 nM; with `Cc1ccccc1N1CCN(c2ccc(C(=O)NCCCC(=O)O)cc2NC(=O)c2coc(C3CC3)n2)CC1` [Compound 351], 100 to 1000 nM; with `Cc1ccccc1N1CCN(c2ccc(C(=O)NCCc3ccccc3C#N)cc2NC(=O)c2coc(C3CC3)n2)CC1` [Compound 397], 100 to 1000 nM.
With `CCC(CCNC(=O)c1ccc(N2CCN(c3ccccc3C)CC2)c(NC(=O)c2ccco2)c1)N1CCCC1=O` (centres unmarked) [Compound 281], the EC50 is 100 to 1000 nM.
As to `Cc1ccccc1N1CCN(c2ccc(C(=O)NCC3(C(N)=O)CC3)cc2NC(=O)c2coc(C3CC3)n2)CC1` [Compound 359], the EC50 was in the range of 100 to 1000 nM.
Still for that read-out and setting: then `NC1(c2ccccc2)CCN(c2ccc(C(=O)NCCCN3CCCC3=O)cc2NC(=O)c2coc(C3CC3)n2)CC1` [Compound 401], with greater than 10000 nM; and `N#Cc1ccccc1N1CCN(c2ccc(C(=O)NCCCN3CCCC3=O)cc2NC(=O)c2coc(C3CC3)n2)CC1` [Compound 525], with 100 to 1000 nM; and `Cc1ccccc1N1CCN(c2ccc(C(=O)NCCCN3CCNC3=O)cc2NC(=O)c2ccco2)CC1` [Compound 468], with less than 100 nM.
The same measure, in the same setting: with `Cc1ccccc1N1CCN(c2ccc(C(=O)N[C@H]3CCC[C@@H](O)C3)cc2NC(=O)c2coc(C3CC3)n2)CC1` [Compound 575] the figure was less than 100 nM; with `Cc1ccc(C(=O)Nc2cc(C(=O)NCCCN3CCCC3=O)ccc2N2CCC(N(C)c3ccccc3)CC2)o1` [Compound 423], greater than 10000 nM.
For `Cc1ccccc1N1CCN(c2ccc(C(=O)Nc3ccc(C(C)(C)C#N)cc3)cc2NC(=O)c2coc(C3CC3)n2)CC1` [Compound 409], the concentration for a half-maximal effect (EC50) is greater than 10000 nM.
Consider `Cc1ccccc1N1CCN(c2ccc(C(=O)NCCCN3CCCC3=O)cc2NC(=O)c2cncn2C)CC1` [Compound 421], for which the EC50 is greater than 10000 nM.
As for `Cc1ccccc1N1CCN(c2ccc(C(=O)NCCCN3CCOC3=O)cc2NC(=O)c2coc(C3CC3)n2)CC1` [Compound 321], the EC50 fell in the range of 100 to 1000 nM.
Regarding `Cc1ccccc1N1CCN(c2ccc(C(=O)N[C@@H](CO)c3ccccc3)cc2NC(=O)c2coc(C3CC3)n2)CC1` [Compound 343], the EC50 lay within 1000 to 10000 nM.
On the same count and under the same terms, with `Cc1ccccc1N1CCN(c2ccc(C(=O)NCCCn3cccc3)cc2NC(=O)c2coc(C3CC3)n2)CC1` [Compound 279] the figure was 100 to 1000 nM; with `Cc1ccccc1N1CCN(c2ccc(C(=O)NCCN3CCCC3=O)cc2NC(=O)c2coc(C3CC3)n2)CC1` [Compound 288], 100 to 1000 nM.
With `Cc1cncnc1N1CCN(c2ccc(C(=O)NCCCN3CCCC3=O)cc2NC(=O)c2ccco2)CC1` [Compound 420], the EC50 is greater than 10000 nM.
In the case of `Cc1ccccc1C1(O)CCN(c2ccc(C(=O)NCCCN3CCCC3=O)cc2NC(=O)c2coc(C3CC3)n2)CC1` [Compound 539], the EC50 was in the range of 1000 to 10000 nM.
The same measure, in the same setting: then `Cc1ccccc1N1CCN(c2ccc(C(=O)NCCCN3C(=O)[C@H]4C[C@@H]3C(O)C4O)cc2NC(=O)c2ccco2)CC1` (some centres unmarked) [Compound 477], with less than 100 nM; and `CCCCNC(=O)NCCCNC(=O)c1ccc(N2CCN(c3ccccc3C)CC2)c(NC(=O)c2ccco2)c1` [Compound 491], with 100 to 1000 nM.
Same read-out and setting: then `Cc1ccc(C(=O)Nc2cc(C(=O)NC[C@@H](O)c3ccccc3)ccc2N2CCN(c3ccccc3C)CC2)o1` [Compound 583], with 1000 to 10000 nM.
Still for that read-out and setting: with `Cc1ccccc1N1CCN(c2ccc(C(=O)NCc3cccc(S(N)(=O)=O)c3)cc2NC(=O)c2ccco2)CC1` [Compound 266] the figure was less than 100 nM.
Take `Cc1nc(CCCNC(=O)c2ccc(N3CCN(c4ccccc4C)CC3)c(NC(=O)c3coc(C4CC4)n3)c2)no1` [Compound 500]: the EC50 lay in the range of 100 to 1000 nM.
Consider `Cc1ccccc1N1CCN(c2ccc(C(=O)NC3(c4cccc(C(N)=O)c4)CC3)cc2NC(=O)c2ccco2)CC1` [Compound 325], for which the 50% effective concentration (EC50) lay in the range of 100 to 1000 nM.
Same read-out and setting: then `Cc1ccccc1N1CCN(c2ccc(C(=O)NCCNC3CS(=O)(=O)CC3O)cc2NC(=O)c2ccco2)CC1` (centres unmarked) [Compound 371], with 100 to 1000 nM; and `O=C(NCCCN1CCCC1=O)c1ccc(N2CC=C(c3ccccc3)CC2)c(NC(=O)c2coc(C3CC3)n2)c1` [Compound 399], with 100 to 1000 nM; and `CCNC(=O)NCCCNC(=O)c1ccc(N2CCN(c3ccccc3C)CC2)c(NC(=O)c2ccco2)c1` [Compound 492], with 100 to 1000 nM.
